Values joined by “and” are separate entries in the source; they are usually repeats but may differ in a detail not shown here. Equal values may be shown once.
Target: D(2) dopamine receptor (Homo sapiens, UniProt P14416)
Sequence (P14416 whole entry): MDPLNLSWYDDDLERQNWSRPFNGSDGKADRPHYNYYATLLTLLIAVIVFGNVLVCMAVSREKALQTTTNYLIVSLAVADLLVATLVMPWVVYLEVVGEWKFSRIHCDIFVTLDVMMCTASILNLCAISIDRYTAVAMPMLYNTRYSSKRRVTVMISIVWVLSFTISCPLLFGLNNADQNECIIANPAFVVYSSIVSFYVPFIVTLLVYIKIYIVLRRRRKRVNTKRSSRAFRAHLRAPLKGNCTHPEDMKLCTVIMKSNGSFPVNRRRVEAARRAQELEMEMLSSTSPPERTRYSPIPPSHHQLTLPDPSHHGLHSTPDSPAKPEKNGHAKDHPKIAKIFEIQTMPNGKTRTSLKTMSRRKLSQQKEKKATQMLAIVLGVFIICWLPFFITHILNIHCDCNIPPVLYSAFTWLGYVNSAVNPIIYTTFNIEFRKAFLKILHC

Compound: OCCN1CCN(CC/C=C2/c3ccccc3Sc3ccc(C(F)(F)F)cc32)CC1 [(cis) 2-{4-[3-(2-Trifluoromethyl-thioxanthen-9-ylidene)-propyl]-piperazin-1-yl}-ethanol(Flupentixol)]
- Ki: 0.6 nM and 2.3 nM and 0.66 nM and 0.73 nM and 2.5 nM

— BindingDB's records for PubMed 1828505 (University of Pennsylvania, 1991)
